This is an account of results in patent publication US20160222024A1, “S-ENANTIOMER OF TETRACYCLIC INDOLE DERIVATIVE AS PBR LIGANDS” (priority 2013, published 2016).

The target of assay [1] is T1, TSPO (Homo sapiens, UniProt P30536, T147A). Description: biochemical.
Protocol: (§1) Membrane protein was prepared from human platelets obtained from 4 donor whole blood samples. Two of these donor samples were previously identified as having high affinity and 2 identified as having low affinity based on PBR28 binding affinity. Platelet pellets were homogenized in 10 ml buffer 1 (0.32 mM sucrose, 5 mM Tris base, 1 mM MgCl2, pH 7.4, 4° C.). The homogenates were centrifuged at 48,000×g for 15 minutes at 4° C. in a Beckman J2-MC centrifuge. The supernatant was removed and pellets were re-suspended in at least 10 ml buffer 2 (50 mM Tris base, 1 mM MgCl2, pH 7.4, 4° C.) and washed by centrifugation at 48,000×g for 15 mM at 4° C. in buffer 2. Membranes were suspended in 2 ml buffer 2 and the protein concentration was determined using Protein Assay Kit II (Bio Rad cat #500-0002). Aliquots were stored at −80° C. until use.
(§2) Aliquots of membrane suspension were thawed and homogenized with assay buffer 3 (50 mM Tris base, 140 mM NaCl, 1.5 mM MgCl2, 5 mM KCl, 1.5 mM CaCl2, pH 7.4, 37° C.). […] Compound 1 was diluted on a Beckman Biomek 2000 workstation at 11 serial dilutions ranging from 1 μM to 0.01 nM. GE180 was diluted at 11 serial dilutions ranging from 100 μM to 1 nM. Total and nonspecific binding assessments were also performed. 160 μL of platelet membranes diluted to 30 μg/mL were added to the assay plate for a final volume of 200 μL/well. Assay plates were incubated at 37° C. for at least one hour with termination of incubation by filtering onto GF/B glass fiber plates (Perkin Elmer; cat #6005177) pre-soaked in 0.1% PEI in saline for 60 minutes. Assay plates were rinsed five to six times with ice cold buffer 4 (50 mM Tris Base, 1.4 mM MgCl2, pH 7.4, 4° C.) on a Perkin Elmer Filtermate 196. Plates were then dried, the bottoms sealed, and 50 μL of MicroScint 20 (Perkin Elmer cat #6013621) was added to each well. After sealing the tops, the plates were allowed to equilibrate for at least 30 minutes and the captured radioactivity was counted on a Perkin Elmer TopCount NTX.
Assay [2] addresses T2, TSPO (Homo sapiens, UniProt P30536). Description: biochemical.
Protocol: as §1, §2
Assay [3] deals with TSPO. The conditions noted are these: ratio of low affinity site to high affinity site; resolved enantiomers.
Protocol: as §1, §2
Assay [4] deals with TSPO. As to conditions: ratio of low affinity site to high affinity site; racemates.
Protocol: (§3) Membrane protein was prepared from human platelets obtained from 4 donor whole blood samples. […] Platelet pellets were homogenized in 10 ml buffer 1 (0.32 mM sucrose, 5 mM Tris base, 1 mM MgCl2, pH 7.4, 4° C.). The homogenates were centrifuged at 48,000×g for 15 minutes at 4° C. in a Beckman J2-MC centrifuge. The supernatant was removed and pellets were re-suspended in at least 10 ml buffer 2 (50 mM Tris base, 1 mM MgCl2, pH 7.4, 4° C.) and washed by centrifugation at 48,000×g for 15 mM at 4° C. in buffer 2. Membranes were suspended in 2 ml buffer 2 and the protein concentration was determined using Protein Assay Kit II (Bio Rad cat #500-0002). Aliquots were stored at −80° C. until use.
(§4) Aliquots of membrane suspension were thawed and homogenized with assay buffer 3 (50 mM Tris base, 140 mM NaCl, 1.5 mM MgCl2, 5 mM KCl, 1.5 mM CaCl2, pH 7.4, 37° C.). […] GE180 was diluted at 11 serial dilutions ranging from 100 μM to 1 nM. Total and nonspecific binding assessments were also performed. 160 μL of platelet membranes diluted to 30 μg/mL were added to the assay plate for a final volume of 200 μL/well. Assay plates were incubated at 37° C. for at least one hour with termination of incubation by filtering onto GF/B glass fiber plates (Perkin Elmer; cat #6005177) pre-soaked in 0.1% PEI in saline for 60 minutes. Assay plates were rinsed five to six times with ice cold buffer 4 (50 mM Tris Base, 1.4 mM MgCl2, pH 7.4, 4° C.) on a Perkin Elmer Filtermate 196. Plates were then dried, the bottoms sealed, and 50 μL of MicroScint 20 (Perkin Elmer cat #6013621) was added to each well. After sealing the tops, the plates were allowed to equilibrate for at least 30 minutes and the captured radioactivity was counted on a Perkin Elmer TopCount NTX.
Assay [5] concerns the target T1, TSPO. Description: biochemical. This is another data set of the same source.
Protocol: as §3, §4
Assay [6] addresses T2, TSPO. Description: biochemical. The source holds these as a separate data set.
Protocol: as §3, §4
For assay [7], the system named is TSPO. The conditions noted are these: compared with [11C]PBR28; cited from earlier work.
Assay [8] deals with TSPO. The conditions noted are these: in vitro assay; LABs compared with HABs; cited from earlier work.

pKi: −log10 of the molar value. Where two headings read alike, the source gives them in different places.

T2 sequence (P30536 2-169): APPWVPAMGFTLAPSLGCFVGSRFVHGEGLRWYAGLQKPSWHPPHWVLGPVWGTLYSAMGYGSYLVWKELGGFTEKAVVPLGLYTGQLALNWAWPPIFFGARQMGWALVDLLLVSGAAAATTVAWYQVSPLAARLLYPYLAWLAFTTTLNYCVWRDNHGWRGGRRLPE
T1 sequence (P30536 2-169 T147A): as the sequence (P30536 2-169) above, with T146A counted along it

The pKi is −log10 of the Ki, conventionally taken in molar units. Take `CCN(CC)C(=O)[C@@H]1Sc2ccccc2-c2c1c1ccc(OC)cc1n2CCF` [Compound 1 E1]: the values for the pKi in assay [1] and in assay [2] were 7.82 and 7.51, respectively. For the same molecule, the “Low:High affinity ratio” value in assay [3] came to 2.

As to `CCN(CC)C(=O)[C@H]1Sc2ccccc2-c2c1c1ccc(OC)cc1n2CC[18F]` [Compound 1 E2], the pKi is 8.52 in assay [1] and 8.40 in assay [2]. In assay [3], the “Low:High affinity ratio” value was determined as 1.

Take `CCN(CC)C(=O)C1Sc2ccccc2-c2c1c1c(OC)cccc1n2CCF` (racemic) [Compound 1, N,N-diethyl-11-(2-fluoroethyl)-7-methoxy-6,11-dihydrothiochromeno[4,3-b]indole-6-carboxamide]: the “Low:High affinity ratio” value in assay [4] is reported as 9.87. Besides, the pKi in assay [5] is 10.30; in assay [6], 9.29.

Turning to `CCC(C)N(C)C(=O)c1cc2ccccc2c(-c2ccccc2Cl)n1` (stereo not shown) [[^11C]PK11195], the “in vivo specific binding in monkey brain, lower than that reported for [11C]PBR28” value in assay [7] is approximately 80 fold.

For the molecule `CCN(CC)C(=O)[C@H]1CCCc2c1c1c(OC)cccc1n2CCF` (stereo in doubt) [GE180, 9-(2-Fluoro-ethyl)-5-methoxy-2,3,4,9-tetrahydro-1H-carbazole-4-carboxylic acid diethylamide], the “Low:High affinity ratio” value in assay [4] came to 15.44; in assay [3], 3.

As to `COc1ccccc1CN(C(C)=O)c1cnccc1Oc1ccccc1` [[^3H]PBR28], in assay [8], the “lower TSPO affinity in LABs than in HABs” value is reported as “more than 10 fold”.

`COc1ccccc1CN(C(C)=O)c1cnccc1Oc1ccccc1` [PBR28, N-(2-methoxybenzyl)-N-(4-phenoxypyridin-3-yl)acetamide]: the pKi in assay [1] was 8.40; in assay [2], 6.93. Further, the “Low:High affinity ratio” value in assay [3] came to 28.
